Measured values as given in patent US12509459B2, “Inhibitors of NLRP3 inflammasome” (BioAge Labs, Inc., priority 2024, dated 2025).
One block for each compound: values may come before it.

How the values were obtained:
DIO mice = experiment: Diet-induced obesity (DIO) mouse model; assay type: in vivo; settings: for body weight of high fat DIO mice / food consumption of high fat DIO mice: summary, comparable to the effect of Semaglutide
NLRP3 = NLRP3 (Homo sapiens, UniProt Q96P20); experiment: THP-1 cell-based NLRP3 activation assay; design: endogenous in cells; host or cells: THP-1 cells (PMA-differentiated, LPS-primed, nigericin-stimulated); settings: PMA-differentiated THP-1 cells, LPS 100 ng/mL then 10 μM nigericin
NLRP3, sequence (Q96P20 whole entry): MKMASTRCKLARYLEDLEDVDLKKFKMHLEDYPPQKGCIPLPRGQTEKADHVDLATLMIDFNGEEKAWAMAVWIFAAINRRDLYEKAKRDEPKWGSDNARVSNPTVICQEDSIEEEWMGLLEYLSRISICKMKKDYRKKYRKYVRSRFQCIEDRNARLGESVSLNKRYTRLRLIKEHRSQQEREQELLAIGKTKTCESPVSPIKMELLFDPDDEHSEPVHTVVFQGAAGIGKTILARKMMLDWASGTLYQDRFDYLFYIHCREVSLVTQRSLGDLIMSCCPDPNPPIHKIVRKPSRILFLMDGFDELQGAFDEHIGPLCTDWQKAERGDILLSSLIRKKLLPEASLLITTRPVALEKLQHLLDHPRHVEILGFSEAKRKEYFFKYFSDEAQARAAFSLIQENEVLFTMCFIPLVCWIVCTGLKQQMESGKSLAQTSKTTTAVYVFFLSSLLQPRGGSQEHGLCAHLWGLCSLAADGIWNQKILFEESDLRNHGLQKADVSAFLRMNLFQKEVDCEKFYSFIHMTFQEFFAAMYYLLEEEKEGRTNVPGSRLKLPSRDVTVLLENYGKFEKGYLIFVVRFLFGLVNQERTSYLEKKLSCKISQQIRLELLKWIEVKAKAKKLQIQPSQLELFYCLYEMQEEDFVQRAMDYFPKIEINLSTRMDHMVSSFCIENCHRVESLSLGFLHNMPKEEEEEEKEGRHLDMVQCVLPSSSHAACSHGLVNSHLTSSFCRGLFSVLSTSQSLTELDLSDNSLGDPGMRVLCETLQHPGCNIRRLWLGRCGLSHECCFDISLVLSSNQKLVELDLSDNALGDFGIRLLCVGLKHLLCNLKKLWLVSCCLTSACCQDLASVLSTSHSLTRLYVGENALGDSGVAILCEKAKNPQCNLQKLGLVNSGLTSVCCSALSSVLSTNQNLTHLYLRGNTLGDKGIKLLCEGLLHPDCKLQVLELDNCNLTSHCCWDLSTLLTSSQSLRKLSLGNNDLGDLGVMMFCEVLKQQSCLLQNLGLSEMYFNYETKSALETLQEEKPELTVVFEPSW
Method in brief: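 After 30 min compound preincubation, inflammasome activation was triggered with 10 μM nigericin (1 h) in LPS-primed (100 ng/mL, 3 h) THP-1 cells differentiated with PMA at 20 nM/24 h or 500 nM/3 h. CellTiter-Glo measured residual cell viability.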

foot gout mouse model = experiment: Foot gout mouse model; assay type: in vivo
[1] = DIO mice, 5 to 100/75 mpk QD PO, FIG. 10
[2] = DIO mice, 100/75 mpk, po, qd (75 mpk since day 9)
[3] = DIO mice, doses of 50 mpk or higher, FIG. 11
[4] = DIO mice, doses of 50 mpk or higher, treatment for 4 weeks, FIG. 13

SMILES: CCOc1cc(C(=O)N(C)[C@H](CCN(C)C)c2cncc3cn[nH]c23)ccc1-c1cccc(F)c1 [Compound 040]
body weight of DIO mice (DIO mice; 5 to 100/75 mpk QD PO, FIG. 8): dose-dependent effect on reducing body weight
Day 28 BW % change vs. DIO/VEH (DIO mice; DIO mice, 5 mpk, po, qd): 0.6%
Day 28 BW % change vs. baseline (DIO mice; DIO mice, 5 mpk, po, qd): 4.6%
food consumption (DIO mice; DIO mice, 5 to 100/75 mpk QD PO, FIG. 9): dose-dependent effect on reducing food consumption
fat mass to body weight percentage (DIO mice; [1]): dose-dependent effect on reducing fat mass to body weight percentage
lean mass to body weight percentage (DIO mice; [1]): maintaining lean mass to body weight percentage
Day 28 BW % change vs. DIO/VEH (DIO mice; DIO mice, 20 mpk, po, qd): −2.7%
Day 28 BW % change vs. baseline (DIO mice; DIO mice, 20 mpk, po, qd): 1.3%
Day 28 BW % change vs. DIO/VEH (DIO mice; DIO mice, 50 mpk, po, qd): −11.6%
Day 28 BW % change vs. baseline (DIO mice; DIO mice, 50 mpk, po, qd): −7.6%
Day 28 BW % change vs. DIO/VEH (DIO mice; [2]): −22.0%
Day 28 BW % change vs. baseline (DIO mice; [2]): −17.9%
inguinal fat to body weight percentage or muscle tissues to body weight percentage (DIO mice; DIO mice, compared with Semaglutide treated mice, FIG. 13): no significant difference from Semaglutide treated mice
fasting glucose (DIO mice; [3]): significantly reduced fasting glucose
insulin sensitivity (DIO mice; [3]): improved insulin sensitivity
inguinal fat weight (DIO mice; [4]): significantly reduced
liver weight (DIO mice; [4]): significantly reduced
body weight of high fat DIO mice (DIO mice): significantly reduced
food consumption of high fat DIO mice (DIO mice): significantly reduced
treatment mode in foot gout model (foot gout mouse model): can be used as both a preventative and therapeutic treatment
swelling (foot gout mouse model; FIG. 16 and FIG. 17): reduce swelling in a foot gout mouse model in a dose dependent manner
IC50 (NLRP3): < 100 nM

SMILES: Cc1ccc([C@@H](CCN(C)C)N(C)C(=O)c2ccc(-c3cccc(F)c3)c(OC3CC3)c2)c2[nH]ncc12 [Compound 202]
IC50 (NLRP3): < 100 nM

SMILES: CCOc1cc(C(=O)N(C)[C@H](CCNC)c2cccc3cn[nH]c23)ccc1-c1cccc(F)c1 [Compound 197]
IC50 (NLRP3): < 100 nM

SMILES: CCOc1cc(C(=O)N(C)[C@H](CCN2CCC2)c2cncc3cn[nH]c23)ccc1-c1cccc(F)c1 [Compound 077]
IC50 (NLRP3): < 100 nM

SMILES: CCNCC[C@H](c1cncc2cn[nH]c12)N(C)C(=O)c1ccc(-c2cccc(F)c2)c(OCC)c1 [Compound 167]
IC50 (NLRP3): < 100 nM

SMILES: CCOc1cc(C(=O)N(C[C@@H](C)O)[C@H](C)c2cnc(C)c3cn[nH]c23)ccc1-c1cccc(F)c1 [Compound 058]
IC50 (NLRP3): < 100 nM

SMILES: CCOc1cc(C(=O)N(C)[C@H](CC[N+](C)(C)[O-])c2cncc3cn[nH]c23)ccc1-c1cccc(Cl)c1 [Compound 163]
IC50 (NLRP3): < 100 nM

SMILES: CCOc1cc(C(=O)N(C)[C@H](CC[N+]([O-])(CC)CC)c2cccc3cn[nH]c23)ccc1-c1cccc(Cl)c1 [Compound 207]
IC50 (NLRP3): < 100 nM

SMILES: CCOc1cc(C(=O)N(C)[C@H](CCN(C)CCF)c2cncc3cn[nH]c23)ccc1-c1ccccc1 [Compound 155]
IC50 (NLRP3): < 100 nM

SMILES: CCOc1cc(C(=O)N(C)[C@@H](c2cncc3cn[nH]c23)[C@H]2CCN(C)C2)ccc1-c1cccc(F)c1 [Compound 082]
IC50 (NLRP3): < 100 nM

SMILES: CCOc1cc(C(=O)N(C)[C@@H](c2cncc3cn[nH]c23)[C@@H]2CCN(C)C2)ccc1-c1cccc(F)c1 [Compound 081]
IC50 (NLRP3): < 100 nM

SMILES: CCOc1cc(C(=O)N(CCN2CCCC(F)(F)C2)Cc2cncc3cn[nH]c23)ccc1-c1cccc(F)c1 [Compound 113]
IC50 (NLRP3): < 100 nM

SMILES: CCOc1cc(CN(CCN2CCOCC2)Cc2cncc3cn[nH]c23)ccc1-c1cccc(F)c1 [Compound 118]
IC50 (NLRP3): 100 to 500 nM

SMILES: CCOc1cc(C(=O)N(C)[C@@H](c2cnc(C)c3cn[nH]c23)C2CN(C)C2)ccc1-c1cccc(F)c1 [Compound 071]
IC50 (NLRP3): < 100 nM

SMILES: CCOc1cc(C(=O)N(C)[C@H](CCN(C)C)c2cnc(C)c3cn[nH]c23)ccc1-c1cccc(C)c1 [Compound 084]
IC50 (NLRP3): < 100 nM

SMILES: CCOc1cc(C(=O)N(C)[C@H](CCN(C)C)c2ccc(C)c3cn[nH]c23)ccc1-c1cccc(F)c1 [Compound 200]
IC50 (NLRP3): 100 to 500 nM

SMILES: CN(C)CC[C@H](c1cncc2cn[nH]c12)N(C)C(=O)c1ccc(-c2ccccc2)c(OC2CC2)c1 [Compound 073]
IC50 (NLRP3): < 100 nM

SMILES: CCOc1cc(C(=O)N(C)[C@@H](c2cncc3cn[nH]c23)[C@H]2CCN(C)C2)ccc1-c1ccccc1 [Compound 153]
IC50 (NLRP3): < 100 nM

SMILES: CCOc1cc(C(=O)N(C)[C@@H](c2cncc3cn[nH]c23)[C@@H]2CCNC2)ccc1-c1cccc(F)c1 (single isomer, unassigned) [Compound 087]
IC50 (NLRP3): < 100 nM

SMILES: CCOc1cc(C(=O)N(C)[C@H](CC[N+](C)(C)[O-])c2cncc3cn[nH]c23)ccc1-c1ccccc1 [Compound 166]
IC50 (NLRP3): < 100 nM

SMILES: CCOc1cc(C(=O)N(CCO)Cc2cnc(CNC)c3cn[nH]c23)ccc1-c1cccc(F)c1 [Compound 050]
IC50 (NLRP3): 1000 to 15000 nM

SMILES: CCOc1cc(C(=O)N(CCO)Cc2cnc(N)c3cn[nH]c23)ccc1-c1cccc(Cl)c1 [Compound 046]
IC50 (NLRP3): < 100 nM

SMILES: CN(C)CC[C@H](c1cccc2cn[nH]c12)N(C)C(=O)c1ccc(-c2cccc(F)c2)c(OC2CC2)c1 [Compound 198]
IC50 (NLRP3): < 100 nM

SMILES: CCOc1cc(C(=O)N(C)[C@@H](CCO)c2cnc(C)c3cn[nH]c23)ccc1-c1cccc(Cl)c1 [Compound 029]
IC50 (NLRP3): < 100 nM

SMILES: CCOc1cc(C(=O)N(C[C@@H](C)O)[C@@H](C)c2cnc(C)c3cn[nH]c23)ccc1-c1cccc(F)c1 [Compound 060]
IC50 (NLRP3): > 15000 nM

SMILES: CCOc1cc(C(=O)N(C)[C@H](CCN(C)C)c2ccc(C)c3cn[nH]c23)ccc1-c1ccccc1 [Compound 204]
IC50 (NLRP3): 100 to 500 nM

SMILES: CCOc1cc(C(=O)N(C)[C@@H](CCN(C)C)c2ccc(C)c3cn[nH]c23)ccc1-c1cccc(F)c1 [Compound 201]
IC50 (NLRP3): 100 to 500 nM

SMILES: CCOc1cc(C(=O)N(CCO)Cc2cnc(NC)c3cn[nH]c23)ccc1-c1cccc(F)c1 [Compound 048]
IC50 (NLRP3): < 100 nM

SMILES: CCOc1cc(C(=O)N(C)[C@@H](CN(C)C)c2cncc3cn[nH]c23)ccc1C(C)C [Compound 209]
IC50 (NLRP3): < 100 nM

SMILES: CN(C(=O)c1ccc(-c2cccc(Cl)c2)c(OC2CC2)c1)[C@H](CO)c1cncc2cn[nH]c12 [Compound 006, (S)-3′-chloro-2-cyclopropoxy-N-(2-hydroxy-1-(1H-pyrazolo[4,3-c]pyridin-7-yl)ethyl)-N-methyl-[1,1′-biphenyl]-4-carboxamide]
IC50 (NLRP3): < 100 nM

SMILES: CCOc1cc(C(=O)N(Cc2cnc(C)c3cn[nH]c23)[C@H]2CC[C@@H]2O)ccc1-c1cccc(F)c1 [Compound 056]
IC50 (NLRP3): < 100 nM

SMILES: CCOc1cc(C(=O)N(C)[C@H](CCN(C)C)c2cccc3cn[nH]c23)ccc1-c1cccc(C#N)c1 [Compound 196]
IC50 (NLRP3): < 100 nM

SMILES: CCOc1cc(C(=O)N(C)[C@H](CO)c2cncc3cn[nH]c23)ccc1-c1cccc(F)c1 [Compound 001]
IC50 (NLRP3): < 100 nM

Second part, led by results:

IC50 (NLRP3): < 100 nM
SMILES: [2H]C([2H])([2H])N(CC[C@H](c1cncc2cn[nH]c12)N(C)C(=O)c1ccc(-c2cccc(F)c2)c(OCC)c1)C([2H])([2H])[2H] [Compound 211]
body weight of DIO mice (DIO mice; Compound 096/211 study, FIGS. 14A and 14B): dose-dependent effect on reducing body weight
Day 14 BW % change vs. baseline (DIO mice; DIO mice, 50 mpk, po, qd): −14.9%
food consumption (DIO mice; DIO mice, Compound 096/211 study, FIG. 14): dose-dependent effect on reducing food consumption
fat mass (DIO mice; DIO mice, Compound 096/211 study, FIG. 15): caused a change in fat mass
body weight of high fat DIO mice (DIO mice): significantly reduced
food consumption of high fat DIO mice (DIO mice): significantly reduced

IC50 (NLRP3): < 100 nM
SMILES: CCOc1cc(C(=O)N(C)[C@H](CCN(C)C)c2cncc3cn[nH]c23)ccc1-c1cc(F)cc(C#N)c1 [Compound 279]

IC50 (NLRP3): < 100 nM
SMILES: CCOc1cc(C(=O)N(Cc2cncc3cn[nH]c23)[C@H]2C[C@@H](CN)C2)ccc1-c1cccc(F)c1 [Compound 248]

IC50 (NLRP3): 100 to 500 nM
SMILES: CCOc1cc(C(=O)N(C)C(CN(C)C)c2cncc3cn[nH]c23)ccc1-c1ccccc1 (stereo not drawn) [Compound 226]

IC50 (NLRP3): < 100 nM
SMILES: CCOc1cc(C(=O)N(C)[C@H](CCN(C)CCOC)c2cncc3cn[nH]c23)ccc1-c1cccc(Cl)c1 [Compound 229]

IC50 (NLRP3): < 100 nM
SMILES: CCOc1cc(C(=O)N(Cc2ccc(C)c3cn[nH]c23)[C@H]2C[C@@H](NC)C2)ccc1-c1cccc(F)c1 [Compound 266]

IC50 (NLRP3): < 100 nM
SMILES: CCOc1cc(C(=O)N(C)[C@H](CCN(C)CCOC)c2cncc3cn[nH]c23)ccc1-c1cccc(F)c1 [Compound 263]

IC50 (NLRP3): < 100 nM
SMILES: CCOc1cc(C(=O)N(Cc2cncc3cn[nH]c23)[C@H]2C[C@@H](CN(C)C)C2)ccc1-c1cccc(F)c1 [Compound 249]

IC50 (NLRP3): < 100 nM
SMILES: CCOc1cc(C(=O)N(C)[C@@H](CN2CCCC2)c2cccc3cn[nH]c23)ccc1-c1cccc(F)c1 [Compound 223]

IC50 (NLRP3): 1000 to 15000 nM
SMILES: CCOc1cc(C(=O)N(C)[C@@H](CCN)c2cnc(C)c3cn[nH]c23)ccc1C [Compound 299]

IC50 (NLRP3): < 100 nM
SMILES: CCOc1cc(C(=O)N(Cc2cnc(C)c3cn[nH]c23)[C@H]2C[C@@H](NC)C2)ccc1-c1cccc(Cl)c1 [Compound 277]

IC50 (NLRP3): < 100 nM
SMILES: CCOc1cc(C(=O)N(Cc2cncc3cn[nH]c23)[C@H]2C[C@@H](N(C)C)C2)ccc1-c1cccc(C#N)c1 [Compound 290]

IC50 (NLRP3): < 100 nM
SMILES: CCOc1cc(C(=O)N(C)[C@@H](CN(C)CC)c2cccc3cn[nH]c23)ccc1-c1cccc(F)c1 [Compound 259]

IC50 (NLRP3): 1000 to 15000 nM
SMILES: CCOc1cc(C(=O)N(C)[C@H](CC[N+](C)(C)[O-])c2cncc3cn[nH]c23)ccc1-c1cccc(Cl)c1 [Compound 210]

IC50 (NLRP3): 500 to 1000 nM
SMILES: CCOc1cc(C(=O)N(C)[C@H](CN2CCCC2)c2cccc3cn[nH]c23)ccc1-c1cccc(F)c1 [Compound 222]
